Measured values published in publication PMC8344233, “Anticancer activity and toxicity of new quaternary ammonium geldanamycin derivative salts and their mixtures with potentiators” (Journal of Enzyme Inhibition and Medicinal Chemistry, 2021).
Read-outs that look alike come from different tables or passages of the source.

Key:
Assay type in all cases: cell-based, human
A-549 = experiment: SRB cytotoxicity assay, A-549 (2nd panel); details: for IC50: Homo sapiens, A549, ± SD, SRB, 72 h; for selectivity index SIHDF (A-549): IC50 normal cell line HDF/IC50 A-549
Procedure: Medium. Human Dermal Fibroblasts cell line (HDF) was cultured in Fibroblast Basal Medium.
(§1) Each medium was supplemented with 10% fetal bovine serum, 1% L-glutamine, and 1% penicillin/streptomycin solution. The cell lines were kept in the incubator at 37◦C. The optimal plating density of cell lines was determined to be 5 × 104. All the cell lines and mediums were obtained from American Type Culture Collection (ATCC) supplied by LGC-Standards. The protein-staining SRB (Sigma-Aldrich) microculture colorimetric assay, developed by the National Cancer Institute (USA) for in vitro antitumor screening was used in this study, to estimate the cell number by providing a sensitive index of total cellular protein content, being linear to cell density. The monolayer cell culture was trypsinized and the cell count was adjusted to 5 × 10^4 cells. To each well of the 96 well microtiter plate, 0.1 mL of the diluted cell suspension (approximately […]) was added. After 24 hours, when a partial monolayer was formed, the supernatant was washed out and 100 μL of six different compound concentrations (0.1, 0.2, 1, 2, 10, and 20 μM) were added to the cells in microtitre plates. The tested compounds were dissolved in DMSO (containing 10 % of water) (100 μL) and the […]
(§2) lines. The cells were exposed to compounds for 72 hours at 37 °C in a humidified atmosphere (90% RH) containing 5% CO2. After that, 25 μL of 50 % trichloroacetic acid was added to the wells and the plates were incubated for 1 hour at 4◦C. The plates were then washed out with the distilled water to remove traces of medium and next dried by the air. The air-dried plates were stained with 100 μL of 0.4% sulforhodamine B (prepared in 1 % acetic acid) and kept for 30 minutes at room temperature. The unbound dye was removed by rapidly washing with 1% […]
acetic acid and then air dried overnight. The protein-bound dye was dissolved in 100 μL of 10 mM unbuffered Tris base (pH 10.5) for optical density determination at 490 nm. All cytotoxicity experiments were performed three times. Cell survival was measured as the percentage absorbance compared to the control (nontreated cells). Cytarabine (ara-C) and GDM were used as the internal standards. Additionally biological assays were performed in Human Dermal Fibroblasts cell line (HDF) in aim to evaluate cytotoxicity of GDM and its 1-13 analogs in healthy cells. SI indexes were calculated from equation SI = IC50 normal cell line HDF/IC50 respective cancerous cell line (Table 2). A beneficial SI > 1.0 indicates a compound with efficacy against tumor cell greater than the toxicity against normal cells. […]

MDA-MB-231 = experiment: MTT cytotoxicity assay, MDA-MB-231 (1st panel); details: for IC50: Homo sapiens, MDA-MB-231, ± SD, MTT, 72 h; for selectivity index SI (MDA-MB-231): IC50 normal cell line CCD39Lu/IC50 MDA-MB-231
Procedure: Cell survival was measured as the percentage absorbance compared to the control (nontreated cells). […]
SI indexes were calculated from equation SI = IC50 normal cell line HDF/IC50 respective cancerous cell line (Table 2). A beneficial SI > 1.0 indicates a compound with efficacy against tumor cell greater than the toxicity against normal cells.
(§3) All experiments were carried out with human breast adenocarcinoma (MDA-MB-231 and MCF-7), hepatocellular carcinoma (HepG2), human cervical adenocarcinoma (HeLa) cancer cell lines, and human normal lung fibroblast (CCD39Lu) cell line. The cell line was purchased from the European Collection of Cells Cultures (ECACC, Salisbury, UK), and cultured in DMEM with phenol red supplemented with 10% (v/v) FBS, 1% (v/v) penicillin/streptomycin, and 1% (v/v) L-glutamine at 37 °C, in a humidified atmosphere containing 5% CO2.
(§4) The tested compounds were dissolved in DMSO to the final concentration 10 mM and stored […]
(§5) The cytotoxic effect of the tested compounds was determined by MTT assay. MDA-MB-231, MCF-7, HepG2, HeLa, and CCD39Lu cells were seeded in 96 wells plates at density 2x10^4 cells/well and incubated overnight under cell culture condition. Next, cells were treated with tested compounds at concentrations of 10 µM; 5 µM; 2.5 µM; 1.2 µM; 0.6 µM; 0.3 µM; 0.15 […]
µM. Moreover, GDM (for MCF-7) and 8 (for MCF-7 and MDA-MB-231) due to high cytotoxicity, were additionally tested at a lower concentration range of 2.5 µM; 1.2 µM; 0.6 µM; 0.3 µM; 0.15µM; 0.07 µM; 0.03 µM. DMSO was used as a control, and the concentration […]
Tested compounds were added to cells in the medium without phenol red. Cells were incubated 72 h at 37 °C in a humidified atmosphere containing 5% CO2.
Then, the medium was aspirated and MTT solution at a concentration of 0.59 mg/mL in cell culture medium was added to each well. Plates were incubated for 1.5 hours at 37 °C, and then plates were centrifuged for 3 minutes. The formazan crystals were dissolved in 200 µl DMSO and plates were agitated on a plate shaker at 300 –500 rpm for 10 minutes. Absorbance at 570 nm was measured using a plate reader (Biotek Instruments, Elx -800). Data were normalized to the mean absorption of control cells. All experiments were performed at least three times. […]

cancer cell lines = experiment: Cytotoxicity, values summarised over several cancer cell lines
Procedure: Human cancer cells SKBR-3 (human breast cancer cell line) and SKOV-3 (ovarian cancer cell line) were cultured in McCoy’s Modified Medium. Human cancer cells PC-3 (human prostate cancer cell line) were cultured in F-12K medium, as well as A549 cell line (lung cancer cell line). U-87MG cells (glioblastoma cell line) were cultured in Eagle’s Minimal Essential Medium. Human Dermal Fibroblasts cell line (HDF) was cultured in Fibroblast Basal Medium.
as §1, §2
acetic acid and then air dried overnight. The protein-bound dye was dissolved in 100 μL of 10 mM unbuffered Tris base (pH 10.5) for optical density determination at 490 nm. All cytotoxicity experiments were performed three times. Cell survival was measured as the percentage absorbance compared to the control (nontreated cells). Cytarabine (ara-C) and GDM were used as the internal standards. Additionally biological assays were performed in Human Dermal Fibroblasts cell line (HDF) in aim to evaluate cytotoxicity of GDM and its 1-13 analogs in healthy cells. SI indexes were calculated from equation SI = IC50 normal cell line HDF/IC50 respective cancerous cell line (Table 2). A beneficial SI > 1.0 indicates a compound with efficacy against tumor cell greater than the toxicity against normal cells.
as §3, §4, §5

[1] = Homo sapiens, SKBR-3, SKOV-3, PC-3, U-87 and A-549, approximate level or span, read-out: IC50 in 2nd panel of cancer cell lines

SMILES | IC50 (A-549) [µM] | selectivity index SIHDF (A-549) (A-549) | IC50 (MDA-MB-231) [µM] | selectivity index SI (MDA-MB-231) (MDA-MB-231) | IC50 (cancer cell lines; [1]) [µM] | IC50 (cancer cell lines; Homo sapiens, MDA-MB-231, MCF-7, HeLa and HepG2, read-out: IC50s in 1st panel of cancer cell lines) [µM] | IC50 (cancer cell lines; Homo sapiens, span over the four cell lines, read-out: IC50s in MCF-7, MDA-MB-231, A549 and HeLa) [µM] | SI indexes (1st panel, text summary) (cancer cell lines; vs CCD39Lu, Table 1) | IC50 (cancer cell lines; Homo sapiens, approximate level over the three cancer cell lines, mixtures equimolar 1:1, read-out: IC50 in SKBR-3, SKOV-3 and PC-3) [µM] | IC50 (cancer cell lines; SKBR-3, SKOV-3, PC-3, U-87 and A-549, approximate level or span, read-out: IC50 in 2nd panel of cancer cell lines) [µM]
CO[C@H]1/C=C\C=C(/C)C(=O)NC2=CC(=O)C(NC3CCC3)=C(C[C@@H](C)C[C@H](OC)[C@H](O)[C@@H](C)/C=C(\C)[C@@H]1OC(N)=O)C2=O [Compound 1] | 9.01 ± 0.63 | 3.33 | 2.45 ± 0.78 | > 4.08 | ~7.5 |  |  |  |  | 
CO[C@H]1/C=C\C=C(/C)C(=O)NC2=CC(=O)C(NC3CN4CCC3CC4)=C(C[C@@H](C)C[C@H](OC)[C@H](O)[C@@H](C)/C=C(\C)[C@@H]1OC(N)=O)C2=O (stereo partly shown) [Compound 8] | 0.94 ± 0.03 |  | 0.14 ± 0.01 | 6.21 |  | 0.1 to 1 | 0.09 to 1.06 | < 1 |  | 
C=CC[N+]12CCC(CC1)C(NC1=C3C[C@@H](C)C[C@H](OC)[C@H](O)[C@@H](C)/C=C(\C)[C@H](OC(N)=O)[C@@H](OC)/C=C\C=C(/C)C(=O)NC(=CC1=O)C3=O)C2 (stereo partly shown) [Compound 9] | 3.09 ± 0.01 | 1.71 | 4.65 ± 2.65 | > 2.15 | 2 to 3 |  |  |  |  | 
CO[C@H]1/C=C\C=C(/C)C(=O)NC2=CC(=O)C(NC3C[N+]4(C/C=C/c5ccccc5)CCC3CC4)=C(C[C@@H](C)C[C@H](OC)[C@H](O)[C@@H](C)/C=C(\C)[C@@H]1OC(N)=O)C2=O (stereo partly shown) [Compound 13] | 2.06 ± 0.01 | 1.85 | 4.66 ± 2.49 | > 2.15 | 2 to 3 |  |  |  | ~2 | 
C/C=C/C[N+]12CCC(CC1)C(NC1=C3C[C@@H](C)C[C@H](OC)[C@H](O)[C@@H](C)/C=C(\C)[C@H](OC(N)=O)[C@@H](OC)/C=C\C=C(/C)C(=O)NC(=CC1=O)C3=O)C2 (stereo partly shown) [Compound 10] | 1.29 ± 0.07 | 2.29 | 4.64 ± 1.51 | > 2.16 | ~1.7 |  |  |  |  | 1.29 to 1.94
